The source made the active and inactive calls. No rule for the calls is given here.
Experiments:
Type in all cases: functional
[1] = Antioxidant activity assessed as metal chelating activity by measuring inhibition of ferrozine-Fe2+ complex formation at 25 to 100 ug/ml
Aspergillus niger [2] = assay: Antimicrobial activity against Aspergillus niger MTCC 281 at 500 ug/ml after 72 hrs by cup plate method; details: MTCC 281, 72 h, read-out: IZ
Aspergillus flavus [3] = assay: Antimicrobial activity against Aspergillus flavus MTCC 1973 at 500 ug/ml after 72 hrs by cup plate method; details: MTCC 1973, 72 h, read-out: IZ
Klebsiella pneumoniae [4] = assay: Antimicrobial activity against Klebsiella pneumoniae NCTC 13368 at 1000 ug/ml after 24 hrs by cup plate method; details: NCTC 13368, 24 h, read-out: IZ
Aspergillus oryzae [5] = assay: Antimicrobial activity against Aspergillus oryzae MTCC 3567 at 500 ug/ml after 72 hrs by cup plate method; details: MTCC 3567, 72 h, read-out: IZ
Klebsiella pneumoniae [6] = assay: Antimicrobial activity against Klebsiella pneumoniae NCTC 13368 at 750 ug/ml after 24 hrs by cup plate method; details: NCTC 13368, 24 h, read-out: IZ
Aspergillus terreus [7] = assay: Antimicrobial activity against Aspergillus terreus MTCC 1782 at 500 ug/ml after 72 hrs by cup plate method; details: MTCC 1782, 72 h, read-out: IZ
Aspergillus niger [8] = assay: Antimicrobial activity against Aspergillus niger MTCC 281 at 750 ug/ml after 72 hrs by cup plate method; details: MTCC 281, 72 h, read-out: IZ
Pseudomonas aeruginosa [9] = assay: Antimicrobial activity against Pseudomonas aeruginosa MTCC 1688 at 750 ug/ml after 24 hrs by cup plate method; details: MTCC 1688, 24 h, read-out: IZ
Aspergillus oryzae [10] = assay: Antimicrobial activity against Aspergillus oryzae MTCC 3567 at 750 ug/ml after 72 hrs by cup plate method; details: MTCC 3567, 72 h, read-out: IZ
Staphylococcus aureus [11] = assay: Antimicrobial activity against Staphylococcus aureus ATCC 29513 at 500 ug/ml after 24 hrs by cup plate method; details: ATCC 29513, 24 h, read-out: IZ
Escherichia coli [12] = assay: Antimicrobial activity against Escherichia coli MTCC 723 at 750 ug/ml after 24 hrs by cup plate method; details: MTCC 723, 24 h, read-out: IZ
Aspergillus terreus [13] = assay: Antimicrobial activity against Aspergillus terreus MTCC 1782 at 750 ug/ml after 72 hrs by cup plate method; details: MTCC 1782, 72 h, read-out: IZ
Aspergillus terreus [14] = assay: Antimicrobial activity against Aspergillus terreus MTCC 1782 at 1000 ug/ml after 72 hrs by cup plate method; details: MTCC 1782, 72 h, read-out: IZ
Staphylococcus aureus [15] = assay: Antimicrobial activity against Staphylococcus aureus ATCC 29513 at 750 ug/ml after 24 hrs by cup plate method; details: ATCC 29513, 24 h, read-out: IZ
Escherichia coli [16] = assay: Antimicrobial activity against Escherichia coli MTCC 723 at 1000 ug/ml after 24 hrs by cup plate method; details: MTCC 723, 24 h, read-out: IZ
Escherichia coli [17] = assay: Antimicrobial activity against Escherichia coli MTCC 723 at 500 ug/ml after 24 hrs by cup plate method; details: MTCC 723, 24 h, read-out: IZ
Aspergillus niger [18] = assay: Antimicrobial activity against Aspergillus niger MTCC 281 at 1000 ug/ml after 72 hrs by cup plate method; details: MTCC 281, 72 h, read-out: IZ
Aspergillus oryzae [19] = assay: Antimicrobial activity against Aspergillus oryzae MTCC 3567 at 1000 ug/ml after 72 hrs by cup plate method; details: MTCC 3567, 72 h, read-out: IZ
Pseudomonas aeruginosa [20] = assay: Antimicrobial activity against Pseudomonas aeruginosa MTCC 1688 at 500 ug/ml after 24 hrs by cup plate method; details: MTCC 1688, 24 h, read-out: IZ
Pseudomonas aeruginosa [21] = assay: Antimicrobial activity against Pseudomonas aeruginosa MTCC 1688 at 1000 ug/ml after 24 hrs by cup plate method; details: MTCC 1688, 24 h, read-out: IZ
Aspergillus flavus [22] = assay: Antimicrobial activity against Aspergillus flavus MTCC 1973 at 1000 ug/ml after 72 hrs by cup plate method; details: MTCC 1973, 72 h, read-out: IZ
Aspergillus flavus [23] = assay: Antimicrobial activity against Aspergillus flavus MTCC 1973 at 750 ug/ml after 72 hrs by cup plate method; details: MTCC 1973, 72 h, read-out: IZ
Klebsiella pneumoniae [24] = assay: Antimicrobial activity against Klebsiella pneumoniae NCTC 13368 at 500 ug/ml after 24 hrs by cup plate method; details: NCTC 13368, 24 h, read-out: IZ
Staphylococcus aureus [25] = assay: Antimicrobial activity against Staphylococcus aureus ATCC 29513 at 1000 ug/ml after 24 hrs by cup plate method; details: ATCC 29513, 24 h, read-out: IZ

Structure (SMILES) | Activity [1] | zone of inhibition at 500 µg/mL (Aspergillus niger [2]) | zone of inhibition at 500 µg/mL (Aspergillus flavus [3]) | zone of inhibition at 1000 µg/mL (Klebsiella pneumoniae [4]) | zone of inhibition at 500 µg/mL (Aspergillus oryzae [5]) | zone of inhibition at 750 µg/mL (Klebsiella pneumoniae [6]) | zone of inhibition at 500 µg/mL (Aspergillus terreus [7]) | zone of inhibition at 750 µg/mL (Aspergillus niger [8]) | zone of inhibition at 750 µg/mL (Pseudomonas aeruginosa [9]) | zone of inhibition at 750 µg/mL (Aspergillus oryzae [10]) | zone of inhibition at 500 µg/mL (Staphylococcus aureus [11]) | zone of inhibition at 750 µg/mL (Escherichia coli [12]) | zone of inhibition at 750 µg/mL (Aspergillus terreus [13]) | zone of inhibition at 1000 µg/mL (Aspergillus terreus [14]) | zone of inhibition at 750 µg/mL (Staphylococcus aureus [15]) | zone of inhibition at 1000 µg/mL (Escherichia coli [16]) | zone of inhibition at 500 µg/mL (Escherichia coli [17]) | zone of inhibition at 1000 µg/mL (Aspergillus niger [18]) | zone of inhibition at 1000 µg/mL (Aspergillus oryzae [19]) | zone of inhibition at 500 µg/mL (Pseudomonas aeruginosa [20]) | further results
O=c1[nH]cnc2c1C(c1c(-c3ccccc3)[nH]c3ccc(Cl)cc13)C=C(c1ccccc1)O2 (stereo not given) | Active | 7 mm | 12 mm | 9 mm | 12 mm | 9 mm | 10 mm | 7 mm | 3 mm | 13 mm | 12 mm | 10 mm | 10 mm | 9 mm | 12 mm | 11 mm | 10 mm | 7 mm | 13 mm | 3 mm | zone of inhibition at 1000 µg/mL (Pseudomonas aeruginosa [21]): 3 mm; zone of inhibition at 1000 µg/mL (Aspergillus flavus [22]): 13 mm; zone of inhibition at 750 µg/mL (Aspergillus flavus [23]): 12 mm; zone of inhibition at 500 µg/mL (Klebsiella pneumoniae [24]): 9 mm; zone of inhibition at 1000 µg/mL (Staphylococcus aureus [25]): 12 mm
Cc1ccc(C2=CC(c3c(-c4ccccc4)[nH]c4ccc(C)cc34)c3c(nc4oc(=O)c(C#N)c(N)c4c3N)O2)cc1 (stereo not given) | Active | 0 mm | 12 mm | 10 mm | 10 mm | 10 mm | 9 mm | 0 mm | 6 mm | 11 mm | 3 mm | 10 mm | 4 mm | 4 mm | 3 mm | 10 mm | 10 mm | 0 mm | 10 mm | 9 mm | zone of inhibition at 1000 µg/mL (Pseudomonas aeruginosa [21]): 4 mm; zone of inhibition at 1000 µg/mL (Aspergillus flavus [22]): 13 mm; zone of inhibition at 750 µg/mL (Aspergillus flavus [23]): 12 mm; zone of inhibition at 500 µg/mL (Klebsiella pneumoniae [24]): 11 mm; zone of inhibition at 1000 µg/mL (Staphylococcus aureus [25]): 0 mm
Nc1nc(=S)[nH]c2c1C(c1c(-c3ccccc3)[nH]c3ccccc13)C=C(c1ccccc1)O2 (stereo not given) | Active | 12 mm | 9 mm | 8 mm | 9 mm | 8 mm | 5 mm | 12 mm | 2 mm | 8 mm | 2 mm | 10 mm | 5 mm | 5 mm | 2 mm | 11 mm | 10 mm | 14 mm | 8 mm | 2 mm | zone of inhibition at 1000 µg/mL (Pseudomonas aeruginosa [21]): 2 mm; zone of inhibition at 1000 µg/mL (Aspergillus flavus [22]): 9 mm; zone of inhibition at 750 µg/mL (Aspergillus flavus [23]): 9 mm; zone of inhibition at 500 µg/mL (Klebsiella pneumoniae [24]): 9 mm; zone of inhibition at 1000 µg/mL (Staphylococcus aureus [25]): 0 mm
Nc1nc(=O)[nH]c2c1C(c1c(-c3ccccc3)[nH]c3ccccc13)C=C(c1ccc(Cl)cc1)O2 (stereo not given) | Active | 5 mm | 12 mm | 8 mm | 6 mm | 10 mm | 6 mm | 5 mm | 12 mm | 5 mm | 14 mm | 13 mm | 4 mm | 4 mm | 14 mm | 14 mm | 13 mm | 5 mm | 3 mm | 12 mm | zone of inhibition at 1000 µg/mL (Pseudomonas aeruginosa [21]): 13 mm; zone of inhibition at 1000 µg/mL (Aspergillus flavus [22]): 12 mm; zone of inhibition at 750 µg/mL (Aspergillus flavus [23]): 12 mm; zone of inhibition at 500 µg/mL (Klebsiella pneumoniae [24]): 11 mm; zone of inhibition at 1000 µg/mL (Staphylococcus aureus [25]): 14 mm
Nc1nc(=O)[nH]c2c1C(c1c(-c3ccccc3)[nH]c3ccc(Cl)cc13)C=C(c1ccccc1)O2 (stereo not given) | Active | 10 mm | 10 mm | 10 mm | 12 mm | 10 mm | 3 mm | 10 mm | 8 mm | 12 mm | 3 mm | 10 mm | 3 mm | 3 mm | 3 mm | 10 mm | 10 mm | 8 mm | 12 mm | 9 mm | zone of inhibition at 1000 µg/mL (Pseudomonas aeruginosa [21]): 5 mm; zone of inhibition at 1000 µg/mL (Aspergillus flavus [22]): 9 mm; zone of inhibition at 750 µg/mL (Aspergillus flavus [23]): 10 mm; zone of inhibition at 500 µg/mL (Klebsiella pneumoniae [24]): 11 mm; zone of inhibition at 1000 µg/mL (Staphylococcus aureus [25]): 3 mm
Cc1ccc(C2=CC(c3c(-c4ccccc4)[nH]c4ccccc34)c3c(nc4oc(=O)c(C#N)c(N)c4c3N)O2)cc1 (stereo not given) | Active | 2 mm | 0 mm | 10 mm | 6 mm | 11 mm | 10 mm | 2 mm | 5 mm | 6 mm | 8 mm | 8 mm | 5 mm | 3 mm | 5 mm | 8 mm | 9 mm | 8 mm | 6 mm | 5 mm | zone of inhibition at 1000 µg/mL (Pseudomonas aeruginosa [21]): 9 mm; zone of inhibition at 1000 µg/mL (Aspergillus flavus [22]): 0 mm; zone of inhibition at 750 µg/mL (Aspergillus flavus [23]): 0 mm; zone of inhibition at 500 µg/mL (Klebsiella pneumoniae [24]): 12 mm; zone of inhibition at 1000 µg/mL (Staphylococcus aureus [25]): 3 mm
